Among the data in patent US20110224240A1 (Myrexis, Inc., priority 2010, published 2011) are IC50 values, retold here.

SMILES strings stand for the structures.

What all share (experiment): Multidrug resistant cell assay, cytotoxicity
In test [1] the test system is P388. The format is cell-based, murine. To be noted: Mus musculus; P388; 72 hours; read-out: Various MDR Cell Line Cytotoxicity IC50.
Test [2] relates to MCF-7. The format is cell-based. To be noted: Homo sapiens, MCF7, 72 h, read-out: Various MDR Cell Line Cytotoxicity IC50.
Test [3] has as its system NCI/ADR-Res (MDR-1). To be noted: 72 h, read-out: Various MDR Cell Line Cytotoxicity IC50.
For test [4], the system named is P388/ADR (MDR-1). The format is cell-based. To be noted: 72 hours, read-out: Various MDR Cell Line Cytotoxicity IC50.
Test [5] relates to MCF-7/VP (MRP-1). To be noted: Homo sapiens, MCF7-VP, 72 h, read-out: Various MDR Cell Line Cytotoxicity IC50.
Test [6] deals with MCF-7/MX (BCRP-1). The format is cell-based. The note with it: MCF7/MX, 72 h, read-out: Various MDR Cell Line Cytotoxicity IC50.

`CC(=O)O[C@@]12CO[C@@H]1C[C@H](O)[C@@]1(C)C(=O)[C@H](O)C3=C(C)[C@@H](OC(=O)[C@H](O)[C@@H](NC(=O)OC(C)(C)C)c4ccccc4)C[C@@](O)([C@@H](OC(=O)c4ccccc4)[C@H]21)C3(C)C` [Docetaxel, docetaxel]: the IC50 (commonly the concentration that inhibits the measured activity by half) was 3.3 nM in test [1], 13 nM in test [2], 900 nM in test [3] and 200 nM in test [4].

In the case of `COc1cccc2c1C(=O)c1c(O)c3c(c(O)c1C2=O)C[C@@](O)(C(=O)CO)C[C@@H]3O[C@H]1C[C@H](N)[C@@H](O)[C@H](C)O1` [Epirubicin, epirubicin, reference compound], the values for the IC50 in test [5], in test [2] and in test [6] were 2100 nM, 160 nM and 400 nM, respectively.

With `CC[C@]1(O)C[C@@H]2CN(CCc3c([nH]c4ccccc34)[C@@](C(=O)OC)(c3cc4c(cc3OC)N(C)[C@H]3[C@@](O)(C(=O)OC)[C@H](OC(C)=O)[C@]5(CC)C=CCN6CC[C@]43[C@@H]65)C2)C1` [Vinblastine, vinblastine], the IC50 turned out to be 0.5 nM in test [1], 1.4 nM in test [2], 100 nM in test [3] and 8.3 nM in test [4].
